Reference: US5773423A (priority 1994, dated 1998)
Entries after “also recorded” stand apart in the source; their conditions may differ. Read-outs that look alike come from different tables or passages of the source.

Experiments:
[1] = test system: locomotor activity in mice; assay: Locomotor activity in mice (open field, Digiscan activity monitor); format: in vivo, mouse (NIH Swiss)
[2] = test system: forebrain ischemia in gerbils; assay: Forebrain ischemia in gerbils (bilateral carotid occlusion); format: in vivo, Mongolian gerbil
Description: Ischemia was effected by bilateral occlusion of the carotid arteries. Control gerbils were injected with saline (0.15 ml, i.p. for 10 days). During postischemic recovery, the rate of cerebral blood flow return to pre-ischemia level, neurological status, and survival were monitored. After 7 days, all surviving animals were perfused with formaldehyde for further studies of morphology and histochemistry.

[3] = test system: cardiovascular parameters in rats; format: in vivo, rat
Description: Rats (each weighing 300-340 g) were lightly anesthetized using 1.5-2% halothane. They were monitored for heart rate with a tail sensor and blood pressure using the tail cuff method. Peripheral blood flow (scalp) was monitored using a Perimed laser Doppler blood flow apparatus, with a narrow diameter probe placed in contact with the shaved skin above the center of the cranium. A small amount of clear gel was applied to maintain uniform transmission of light. Body temperature was measured using a rectal probe. Respiratory rate was also recorded. Measurements were made at regular intervals: every 2 min for the first ten min period, and every five min thereafter, until 30 min, at which time a 30 min interval was used, until 90 min. […] Drugs were dissolved in a vehicle consisting of an 80:20 mixture of Alkamuls EL-620 and saline, pH 7.4. […] When administered alone, the agonist was given at the beginning of the monitoring period. When coadministered with an antagonist, the antagonist was given at the beginning of the monitoring period, and the agonist was given after 10 min.

[4] = test system: injection-induced anxiety in mice; assay: Anxiolytic effect in C57BL/J mice (responses to handling); format: in vivo, mouse (C57BL/J); settings: chronic, 100 μg/kg
[5] = test system: NMDA-evoked seizures in mice; format: in vivo
[6] = test system: pentamethylenetetrazole-induced convulsions in mice; format: in vivo
[7] = test system: electroconvulsive shock in mice; format: in vivo
[8] = test system: spontaneous seizures in gerbils; assay: Spontaneous seizures in gerbils on immersion in water maze; format: in vivo, gerbil
Description: During the studies of behavioural responses of gerbils to adenosine receptor stimulation, animals were exposed to the water maze model of spatial learning and memory. The control group (n=15) was injected with the vehicle given i.p. for 6 weeks prior to water maze tests. Twenty-four hours after the last injection, animals were exposed to the swim task. Immersion of animals in the swim tank whose water was kept at 32° C. produced an immediate, long-lasting (up to 2 min) seizure complex that was presented as myoclonic convulsions, followed by a period of rigidity and hind-limb extension.

[9] = test system: spatial memory in gerbils; assay: Learning and memory in gerbils (Morris water maze) and open field; format: in vivo, gerbil; settings: chronic
[10] = Basal or systemic blood pressure (chronic use, malignant hypotension); format: in vivo
[11] = test system: phospholipase C; settings: acute administration; 'it is known'; cited from earlier work
[12] = Rectal temperature of mice under light halothane anesthesia; settings: 100 μg/kg acute (15 min) or chronic (24 h after last injection)
[13] = molecular target: T1, adenosine uptake sites in rat brain membranes (Rattus norvegicus, UniProt O54698); assay: Competition for [3H]NBTI binding at adenosine uptake sites in rat striatal membranes; settings: read-out: Ki (NBTI); 0.3 nM [3H]NBTI, 30 min at 23° C., pH 7.4
T1 sequence (O54698 1-457): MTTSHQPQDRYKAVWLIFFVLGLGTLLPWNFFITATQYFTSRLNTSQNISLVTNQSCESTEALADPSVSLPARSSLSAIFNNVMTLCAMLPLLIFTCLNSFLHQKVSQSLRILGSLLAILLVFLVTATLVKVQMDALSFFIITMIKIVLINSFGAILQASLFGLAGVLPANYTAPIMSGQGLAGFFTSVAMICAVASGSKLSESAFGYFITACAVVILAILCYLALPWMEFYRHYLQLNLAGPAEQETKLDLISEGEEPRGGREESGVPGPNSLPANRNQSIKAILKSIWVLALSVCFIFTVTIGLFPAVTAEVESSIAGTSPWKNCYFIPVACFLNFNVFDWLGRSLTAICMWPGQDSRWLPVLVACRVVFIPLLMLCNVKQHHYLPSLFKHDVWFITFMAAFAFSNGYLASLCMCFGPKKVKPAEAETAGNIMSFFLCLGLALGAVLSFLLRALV

[14] = molecular target: T1, adenosine uptake sites in rat brain membranes; parameters: Rat striatal membranes, prepared as above; from tissue; host or cells: rat striatal membranes; settings: read-out: Kd value used for [3H]NBTI Ki calculation; cited from earlier work
[15] = acute, 15 min prior to 10 min ischemia
[16] = chronic 10 days, 10 min ischemia
[17] = acute IB-MECA 10 μg/kg + NMDA 60 mg/kg, NS
[18] = acute IB-MECA 50 μg/kg + NMDA 60 mg/kg, NS
[19] = acute IB-MECA 100 μg/kg + NMDA 60 mg/kg
[20] = acute IB-MECA 100 μg/kg + NMDA 60 mg/kg, P<0.05
[21] = chronic IB-MECA 100 μg/kg + NMDA 60 mg/kg, P<0.05
[22] = acute IB-MECA 100 μg/kg + PMT 75 mg/kg
[23] = acute IB-MECA 100 μg/kg + PMT 75 mg/kg, P<0.05
[24] = chronic IB-MECA 100 μg/kg + PMT 75 mg/kg
[25] = chronic IB-MECA 100 μg/kg + PMT 75 mg/kg, P<0.05

SMILES: CNC(=O)[C@H]1O[C@@H](n2cnc3c(NCc4cccc(I)c4)ncnc32)[C@H](O)[C@@H]1O [Compound 42, N^6-(3-iodobenzyl)adenosine-5'-N-methyluronamide]
- reduction in locomotor activity at chosen dose ([1]; APEC 16 μg/kg, 3-IB-MECA 100 μg/kg i.p.): ca. 50%
- minimal effective dose ([1]; Mus musculus, ip, read-out: threshold dose for locomotor depression): 0.01 mg/kg
- dose of maximal locomotor depression ([1]; i.p.): about 0.1 mg/kg
- scratching behavior (in words) ([1]; i.p.): rapid scratching behavior
- locomotor measures (in words) ([1]; i.p., listed as 3-IB-MECA): Vertical activity, stereotype counts, and rotational movement were depressed in a dose-dependent manner; also recorded: average distance per move and average speed were not changed significantly
- plateau of locomotor depression below control level ([1]; total distance traveled, higher doses): ca. 60%
- postischemic effect (in words) ([2]; acute (15 min) or chronic (10 days), 100 μg/kg, listed as IB-MECA): impairment of postischemic cortical blood flow rate, increased mortality rate, and extensive neuronal destruction in the hippocampus; also recorded: improved post-ischemic blood reflow, increased survival
- surviving hippocampal neurons ([2]; acute (15 min), 10 min ischemia, 100 μg/kg): about 30%
- survival for 7 days ([2]; acute, 100 μg/kg i.p. 15 min prior to 10 min ischemia): Ten percent
- animals with irreversible coma ([2]; acute, 10 min ischemia): 40%
- animals with seizures ([2]; acute, 10 min ischemia): 60%
- mortality within 12 hr post-ischemia [2, 15]: 90%
- time to full recovery of post-ischemic blood flow [2, 15]: over 3.5 hr
- end-point mortality ([2]; acute, repeated experiment, FIG. 6, p<0.01): 90%
- neurological side effects without ischemia (in words) ([2]; acutely and chronically treated): No neurological side effects were observed
- animals with mild hyperactivity [2, 16]: 40%
- survival for 7 days (in words) [2, 16]: All those gerbils
- time to full recovery of post-ischemic blood flow [2, 16]: about 90 min
- survival for 7 days ([2]; chronic 10 days, 20 min ischemia): 90%
- surviving hippocampal neurons ([2]; chronic (10 days), 10 min ischemia, 100 μg/kg): > 80%
- survival ([2]; chronic, repeated experiment, FIG. 6, p<0.01): 90%
- duration of hypotensive effect ([3]; 0.1 mg/kg): 90 min
- blood flow and respiratory rates (in words) ([3]; 0.1 mg/kg i.p.): not significant
- blood pressure (in words) ([3]; 0.1 mg/kg i.p.): lowering of the blood pressure
- heart rate (in words) ([3]; 0.1 mg/kg i.p.): little effect on heart rate
- drop in body temperature ([3]; 0.1 mg/kg i.p., after about 30 min post-injection): approximately 0.5 °C
- onset of hypotensive effect ([3]; 0.1 mg/kg, post-injection): ≤ 2 min
- injection-induced anxiety or stress responses (in words) [4]: almost no injection-induced anxiety or stress behavioral responses
- incidence of seizures or degree of neurological impairment (in words) ([5]; acute IB-MECA 10 μg/kg + NMDA 60 mg/kg): no effect on either the incidence of seizures, or the degree of neurological impairment
- % Convulsing [5, 17]: 50%
- % Mortality at 24 h [5, 17]: 50%
- Impairment (scale 1-6) [5, 17]: 2.7 + 0.6
- Ave. Latency to Seizures ([5]; acute IB-MECA 10 μg/kg + NMDA 60 mg/kg, P<0.05): 581 + 107 sec
- % Mortality at 24 h [5, 18]: 27%
- Impairment (scale 1-6) [5, 18]: 2.0 + 0.5
- % Convulsing ([5]; acute IB-MECA 50 μg/kg + NMDA 60 mg/kg, P<0.05): 10%
- Ave. Latency to Seizures ([5]; acute IB-MECA 50 μg/kg + NMDA 60 mg/kg, only one animal): 12 s
- % Convulsing [5, 19]: 0%
- clinically manifested seizures (in words) [5, 19]: completely absent
- duration of lethargic behaviour [5, 19]: 45 to 60 min
- % Mortality at 24 h [5, 20]: 10%
- Impairment (scale 1-6) [5, 20]: 1.4 + 0.4
- animals with tonic seizures ([5]; chronic IB-MECA 100 μg/kg + NMDA 60 mg/kg): 20%
- % Convulsing [5, 21]: 30%
- Ave. Latency to Seizures [5, 21]: 689 + 108 sec
- Impairment (scale 1-6) [5, 21]: 1.8 + 0.4
- onset of seizures and overall mortality after PMT (in words) ([6]; acute IB-MECA): significantly reduced
- Impairment [6, 22]: 4.1 + 0.5
- Mortality 0.4-5 h [6, 22]: 0%
- Mortality <15 min [6, 22]: 40%
- Mortality >5 h [6, 22]: 10%
- Mortality Overall [6, 23]: 50%
- Onset of convulsive behavior [6, 23]: 112 s
- Mortality 0.4-5 h [6, 24]: 10%
- Mortality <15 min [6, 24]: 40%
- Mortality >5 h [6, 24]: 0%
- Onset of convulsive behavior [6, 24]: 120 s
- Impairment [6, 25]: 3.3 + 0.5
- Mortality Overall [6, 25]: 50%
- onset of seizures or neurological impairment after PMT (in words) ([6]; chronic IB-MECA + PMT 75 mg/kg): no significant effect on either the onset of seizures or neurological impairment
- electroshock threshold voltage (in words) ([7]; acute IB-MECA): insignificant increase of threshold voltage
- % Mortality at 24 h ([7]; acute IB-MECA 100 μg/kg + E.S.): 70%
- Threshold voltage ([7]; acute IB-MECA 100 μg/kg + E.S.): 106 + 10
- electroshock threshold voltage / postictal mortality (in words) ([7]; chronic IB-MECA): no significant changes in threshold voltage; also recorded: postictal mortality was significantly reduced
- Threshold voltage ([7]; chronic IB-MECA 100 μg/kg + E.S.): 118 + 13
- % Mortality at 24 h ([7]; chronic IB-MECA 100 μg/kg + E.S., p<0.05): 30%
- seizing activity (in words) ([8]; acute): worsen the seizing activity
- seizing activity during swim task (in words) ([8]; chronic, 100 μg/kg i.p. daily for 6 wks): entirely eliminated seizing activity
- locomotor behavior in open field (in words) [9]: did not show any significant differences in locomotor behavior
- average time to target ([9]; 100 μg/kg daily for 2 months, p<0.04 vs controls 40 sec): 30 s
- basal or systemic blood pressure after administration ([10]; from about 70 mm Hg): about 90 mm Hg
- increase in basal or systemic blood pressure ([10]; in vivo): 10-30%
- stimulation of phospholipase C and inositol 1,4,5-triphosphate production (in words) [11]: stimulation of phospholipase C and an enhanced production of inositol 1,4,5-triphosphate
- rectal temperature (in words) [12]: no significant temperature differences
- Ki [13]: 28.2 µM

SMILES: O=[N+]([O-])c1ccc(CSc2ncnc3c2ncn3[C@@H]2O[C@H](CO)[C@@H](O)[C@H]2O)cc1 [[^3 H]NBTI]
- Kd [14]: 0.00015 µM
